Data set [1] addresses T1, purified DHFR of strain Sp1/1 of Streptococcus pneumoniae (Streptococcus pneumoniae, UniProt Q54801).
T1 sequence (Q54801 1-168): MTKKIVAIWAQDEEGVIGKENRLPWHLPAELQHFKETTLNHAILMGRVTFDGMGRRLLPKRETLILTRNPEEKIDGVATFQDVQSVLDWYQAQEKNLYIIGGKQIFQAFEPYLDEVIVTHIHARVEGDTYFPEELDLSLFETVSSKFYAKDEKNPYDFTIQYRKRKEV
To be noted: read-out: DHFR Spn1/1 (IC50); purified DHFR of S. pneumoniae strain Spn1/1; IC50 determined graphically.
From the text: 3: DHFR Spn1/1; μM—the IC50-values in μM against the purified DHFR of the above strain Sp1/1 of Streptococcus pneumoniae.

The subject of data set [2] is Streptococcus pneumoniae 1/1, Trimethoprim- and Penicillin-resistant, Serotype 6; clinical isolate. As to the kind of experiment: MIC against Streptococcus pneumoniae 1/1. To be noted: read-out: MIC Spn1/1. Format: cell-based. The method, then:
(§1) The following Table contains inhibitory concentrations determined in the above test for representative members of the class of compound defined by formula I. The following microorganisms were tested: […]
Col. 1: MIC Spn1/1; μg/ml (Streptococcus pneumoniae 1/1, Trimethoprim- and Penicillin-resistant, Serotype 6; clinical isolate, stored at −80° C.)
Lit.: H. Locher et al., Can. J. Infect. Dis.6: Suppl. C, p 469C.

Data set [3] deals with purified DHFR of the strain 157/4696 (highly trimethoprim-resistant; clinical isolate) of Staphylococcus aureus (Staphylococcus aureus, UniProt P13955). As to the kind of experiment: biochemical.
From the text: The inhibition of the enzyme was taken as a measurement for the antibacterial activity.
The test system of data set [4] is Staphylococcus aureus 101, MRSA and Trimethoprim-resistant; clinical isolate. As to the kind of experiment: MIC against Staphylococcus aureus 101. To be noted: read-out: MIC Sa101. The data set is classed as cell-based. The protocol: as §1
Col. 2: MIC Sa101; μg/ml (Staphylococcus aureus 101, MRSA^*)— and Trimethoprim-resistant; clinical isolate, stored at −80° C.)
^*) MRSA=Methicillin Resistant Staphylococcus Aureus

Results on seven compounds are retold here after patent publication US6818649B2, “Chromenylmethyl pyrimidinediamines as antibacterial agents” (Basilea Pharmaceutica AG, priority 2000, dated 2004).

Converted amounts (≈) assume the structure as drawn.

Consider `COc1cc(Cc2cnc(N)nc2N)cc2c1OC(C)(C)C=C2Cl` [Example 6, 5-(4-Chloro-8-methoxy-2,2-dimethyl-2H-chromen-6-ylmethyl)-pyrimidine-2,4-diamine], for which the melting point (as a rule, the temperature of the solid-liquid transition) lay in the range of 221 to 222 °C. Also, the IC50 in data set [1] was 110 nM. Further, in data set [2], the MIC stood at 4 µg/mL (≈ 11.5 µM). The IC50 in data set [3] turned out to be 380 nM. Besides, the MIC in data set [4] came to 1 µg/mL (≈ 2.88 µM).

In turn, `CCOc1cc(Cc2cnc(N)nc2N)cc2c1OC(C)(C)C=C2C` [Example 8, 5-(8-Ethoxy-2,2,4-trimethyl-2H-chromen-6-ylmethyl)-pyrimidine-2,4-diamine] showed a melting point of 216 to 218 °C. In addition, the IC50 in data set [1] is 15 nM. The MIC in data set [2] came out at 2 µg/mL (≈ 5.87 µM). Moreover, in data set [3], the IC50 turned out to be 1300 nM. Moreover, the MIC in data set [4] was found to be 4 µg/mL (≈ 11.7 µM).

Regarding `CCOc1cc(Cc2cnc(N)nc2N)cc2c1OC(C)(C)C=C2CC` [Example 9, 5-(8-Ethoxy-4-ethyl-2,2-dimethyl-2H-chromen-6-ylmethyl)-pyrimidine-2,4-diamine], the melting point was 222 to 225 °C (dec.). In addition, the IC50 in data set [1] came to 12 nM. In addition, the MIC in data set [2] stood at 1 µg/mL (≈ 2.82 µM). The IC50 in data set [3] worked out at 670 nM. Also, the MIC in data set [4] amounted to 4 µg/mL (≈ 11.3 µM).

Regarding `CCCC1=CC(C)(C)Oc2c(OCC)cc(Cc3cnc(N)nc3N)cc21` [Example 10, 5-(8-Ethoxy-2,2-dimethyl-4-propyl-2H-chromen-6-ylmethyl) -pyrimidine-2,4-diamine], the melting point was 208 to 209 °C. The IC50 in data set [1] was found to be 15 nM. The MIC in data set [2] was determined as 2 µg/mL (≈ 5.43 µM). Further, in data set [3], the IC50 was 1100 nM. In addition, the MIC in data set [4] was 4 µg/mL (≈ 10.9 µM).

Consider `COCC#CC1=CC(C)(C)Oc2c(OC)cc(Cc3cnc(N)nc3N)cc21` [Example 16, 5-[8-Methoxy-4-(3-methoxy-prop-1-ynyl)-2,2-dimethyl-2H-chromen-6-ylmethyl]-pyrimidine-2,4-diamine], for which the melting point lay in the range of 236 to 237 °C. In addition, the IC50 in data set [1] came out at 680 nM. Further, the MIC in data set [2] is greater than 8 µg/mL. The same compound had an IC50 in data set [3] of 220 nM. Also, the MIC in data set [4] was determined as 4 µg/mL (≈ 10.5 µM).

Turning to `CCOc1cc(Cc2cnc(N)nc2N)cc2c1OC1(C=C2Br)CCC1` [Example 30, 5-[(4-Bromo-8-ethoxyspiro[2H-1-benzopyran-2,1′-cyclobutan]-6-yl)methyl]-2,4-pyrimidinediamine], the melting point was 213 to 214 °C. Besides, the IC50 in data set [1] was found to be 8.9 nM. The MIC in data set [2] was determined as 4 µg/mL (≈ 9.59 µM). In data set [3], the IC50 worked out at 210 nM. For the same compound, in data set [4], the MIC came to 2 µg/mL (≈ 4.79 µM).

Turning to `COc1cc(Cc2cnc(N)nc2N)cc2c1OC(C)(C)C=C2c1ccc(F)cc1` [Example 32, 5-[4-(4-Fluoro-phenyl)-8-methoxy-2,2-dimethyl-2H-chromen-6-ylmethyl]-pyrimidine-2,4-diamine], the figures for the IC50 in data set [1] and in data set [3] were 190 nM and 80 nM, respectively. Also, the MIC in data set [2] and in data set [4] was greater than 8 µg/mL each time.
